Results taken from US11345761B2, “Esterified selenium polysaccharide and preparation method and use therefor” (AI-MAY ZHONG KE SELENIUM TECHNOLOGY (TIANJIN) CO., LTD, priority 2018, dated 2022).

What was measured:
[1] = Blood detection after feeding mice; format: in vivo; parameters: red blood cell: unit not given here
Text: Mice, which were used as a model, were fed with the esterified selenium polysaccharide prepared by the present invention continuously at a selenium dose of 2 to 5 micrograms of selenium/day for 2 weeks. A polysaccharide without the esterified selenium was used as a control. […] The above-mentioned detection data became stable starting from week 5.

[2] = test system: superoxide dismutase (SOD); experiment: Serum SOD activity after feeding chicks; format: in vivo; conditions: 5 micrograms of selenium/day
Protocol: (§1) Chicks, which were used as a model, were fed with the esterified selenium polysaccharide of the present invention continuously at a dose of 5 micrograms of selenium/day after birth. A polysaccharide without the esterified selenium was used as a control. On days 7, 14, 21, and 28 after feeding, the assay of the activity of glutathione peroxidase (GSH-Px) and superoxide dismutase (SOD) was performed (using commercially available kits EnzyChrom™ Glutahione Peroxidase Assay Kit and MIBio Mouse superoxide dismutase (SOD) kit for completion of the assay).

IFN-γ = IFN-γ expression in B-6 splenocytes, flow cytometry; format: cell-based; conditions: 2 to 5 micrograms selenium/mL, 48 hours, compared with 1,3-glucose hexasaccharide
Protocol: (§2) B-6 splenocytes were used as the experimental model. Carrageenan, chitohexaose, 1,3-glucose hexasaccharide, PMA+innomycin were used as controls and incubated in the culture medium containing the esterified selenium polysaccharide of the present invention (2 to 5 micrograms selenium/mL) for 48 hours to detect the expression of IL-4 and IFN-γ thereof.
(§3) In the Example, the culture medium for culturing B-6 spleen cells is the culture medium for culturing B-6 spleen cells conventionally in the art, and contains essential and non-essential amino acids, vitamins, glucose, hormones, growth factors, trace minerals and low-concentration fetal bovine serum (2%) and 5 mi penicillin/streptomycin solution. The buffer system of the medium is phosphate buffered saline solution PBS, and the pH value is 7.4 after equilibrating in a cell incubator containing 5% CO2.
(§4) After the cells were harvested, they were stained with BD Bioscience's Cytofix/Cytoperm kit and detected by flow cytometry.

IL-4 = IL-4 expression in B-6 splenocytes, flow cytometry; format: cell-based; conditions: 2 to 5 micrograms selenium/mL, 48 hours, compared with 1,3-glucose hexasaccharide
Protocol: as §2, §3, §4

[3] = test system: glutathione peroxidase (GSH-Px); experiment: Serum GSH-Px activity after feeding chicks; format: in vivo; conditions: 5 micrograms of selenium/day
Protocol: as §1

[4] = fed 2 to 5 micrograms of selenium/day, week 3 to week 6

esterified selenium polysaccharide
Selenium content in serum ([1]; Week 1, 2 μg/day selenium): 0.4 µg/L
red blood cell ([1]; Week 1, 2 μg/day selenium): 9.58 ×10^6
white blood cell ([1]; Week 1, 2 μg/day selenium): 7260 mL⁻¹
Selenium content in serum ([1]; Week 1, 5 μg/day selenium): 0.7 µg/L
red blood cell ([1]; Week 1, 5 μg/day selenium): 9.66 ×10^6
white blood cell ([1]; Week 1, 5 μg/day selenium): 7290 mL⁻¹
Selenium content in serum ([1]; Week 3, 2 μg/day selenium): 2.9 µg/L
red blood cell ([1]; Week 3, 2 μg/day selenium): 9.75 ×10^6
white blood cell ([1]; Week 3, 2 μg/day selenium): 7360 mL⁻¹
Selenium content in serum ([1]; Week 3, 5 μg/day selenium): 4.5 µg/L
red blood cell ([1]; Week 3, 5 μg/day selenium): 9.97 ×10^6
white blood cell ([1]; Week 3, 5 μg/day selenium): 7570 mL⁻¹
Selenium content in serum ([1]; Week 4, 2 μg/day selenium): 6.1 µg/L
red blood cell ([1]; Week 4, 2 μg/day selenium): 10.5 ×10^6
white blood cell ([1]; Week 4, 2 μg/day selenium): 7590 mL⁻¹
Selenium content in serum ([1]; Week 4, 5 μg/day selenium): 6.8 µg/L
red blood cell ([1]; Week 4, 5 μg/day selenium): 10.5 ×10^6
white blood cell ([1]; Week 4, 5 μg/day selenium): 7910 mL⁻¹
Selenium content in serum ([1]; Week 5, 2 μg/day selenium): 6.9 µg/L
red blood cell ([1]; Week 5, 2 μg/day selenium): 11.1 ×10^6
white blood cell ([1]; Week 5, 2 μg/day selenium): 7960 mL⁻¹
Selenium content in serum ([1]; Week 5, 5 μg/day selenium): 7.3 µg/L
red blood cell ([1]; Week 5, 5 μg/day selenium): 11.4 ×10^6
white blood cell ([1]; Week 5, 5 μg/day selenium): 7990 mL⁻¹
Selenium content in serum ([1]; Week 6, 2 μg/day selenium): 7.0 µg/L
red blood cell ([1]; Week 6, 2 μg/day selenium): 11.2 ×10^6
white blood cell ([1]; Week 6, 2 μg/day selenium): 7960 mL⁻¹
Selenium content in serum ([1]; Week 6, 5 μg/day selenium): 7.3 µg/L
red blood cell ([1]; Week 6, 5 μg/day selenium): 11.5 ×10^6
white blood cell ([1]; Week 6, 5 μg/day selenium): 7990 mL⁻¹
increase of red blood cells [1, 4]: 20%
increase of selenium content in serum [1, 4]: more than 30%
increase of white blood cells [1, 4]: 10%
Serum SOD ([2]; Day 1): 180 U/mg
Serum SOD ([2]; Day 7): 191 U/mg
Serum SOD ([2]; Day 14): 195 U/mg
Serum SOD ([2]; Day 21): 190 U/mg
Serum SOD ([2]; Day 28): 187 U/mg
increase of SOD at maximum ([2]; maximum on days 7-14): 12%
increase of maximum expression of IFN-γ (IFN-γ): 36%
increase of maximum expression of IL-4 (IL-4): 60%
Serum GSH-Px ([3]; Day 1): 1869 U/mg
Serum GSH-Px ([3]; Day 7): 1879 U/mg
Serum GSH-Px ([3]; Day 14): 1975 U/mg
Serum GSH-Px ([3]; Day 21): 2150 U/mg
Serum GSH-Px ([3]; Day 28): 2090 U/mg
increase of chick GHS-Px activity at maximum ([3]; maximum on days 14-21): 15%
